# Assay results published in patent publication US20220242870A1, “HETEROCYCLE-FUSED PYRIMIDINE DERIVATIVE AND USE THEREOF” (VORONOI Inc., priority 2019, published 2022).
# Assays:
# MCF-7 cells = assay: Breast cancer cell line proliferation inhibitory activity (CellTiter-Glo 2.0); type: cell-based; conditions: Homo sapiens, MCF7, 120 hours
# Experimental: In order to evaluate the breast cancer cell line cell proliferation inhibitory activities of Examples according to the present invention, the following experiment was performed. Breast cancer cells of MCF-7 (Korean Cell Line Bank) were planted in a clear bottom white 96-well plate (Corning) so as to be 3×10^3/150 μl/well, and a culture solution comprising the compound continuously diluted in multiples of 3 at 12 concentrations (0.00001-2 mM) and a DMSO control group was added by 0.5 μl/well and treated so that the final concentration was 0.00005-10 μM, and then cultured in a 37° C. CO2 incubator for 120 hours. After 120 hours, the plate treated with the compound is taken out, and CellTiter-Glo® 2.0 Assay (Promega) solution is treated at 150 μl/well and then they mix well. They mix well at room temperature for 10 minutes or so, and the fluorescence is measured with a microplate reader. The data were expressed as a percentage in proportion to the vehicle standard treated cells, the GI50 (nM) values were calculated using GraphPad Prism 8.3.0 (GraphPad software Inc., San Diego), and the results were shown in Table 3 below.
# human GST-HPK1 (1-346) = biological target: T1, human GST-HPK1 (1-346) (Homo sapiens, UniProt Q92918); assay: HPK1 enzyme inhibitory ability (ADP-Glo kinase assay); type: biochemical; conditions: human GST-HPK1 3 ng, ATP 3 uM, 25° C. 2 hours
# T1 construct: purified human GST-HPK1 (1-346, Signalchem) enzyme; purchased Signalchem
# T1 sequence (Q92918 1-346): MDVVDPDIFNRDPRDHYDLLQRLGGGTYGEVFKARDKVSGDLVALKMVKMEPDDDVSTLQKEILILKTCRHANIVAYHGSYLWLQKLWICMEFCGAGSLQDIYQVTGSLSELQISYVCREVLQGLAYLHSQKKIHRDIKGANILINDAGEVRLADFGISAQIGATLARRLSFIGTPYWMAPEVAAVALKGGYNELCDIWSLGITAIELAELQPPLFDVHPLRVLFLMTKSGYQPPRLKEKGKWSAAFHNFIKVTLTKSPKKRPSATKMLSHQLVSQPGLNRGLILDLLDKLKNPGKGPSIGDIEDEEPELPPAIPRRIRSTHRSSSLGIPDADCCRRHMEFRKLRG
# Experimental: In order to evaluate the inhibitory activities of the example compounds according to the present invention on the HPK1 (hematopoietic progenitor kinase 1) enzyme, the following experiment was performed. The example compounds were reacted with the purified human GST-HPK1 (1-346, Signalchem) enzyme to evaluate the enzyme inhibitory ability by the following method. As the reaction buffer, a composition of 40 mM Tris-HCl pH 7.4, 20 mM MgCl2, 0.5 mg/mL BSA and 50 uM DTT was used, and reactions of all test matters were performed on the reaction buffer. Upon the test, the human GST-HPK1 (3 ng) enzyme, the purified ATP (3 uM) and a specific substrate solution were reacted at 25° C. for 2 hours, and then the enzyme activity was identified using an in vitro ADP-Glo™ kinase assay (promega). The enzyme activity reaction solution, the ADP-Glo reaction solution and the enzyme ability detection solution were reacted in a ratio of 2:2:1 to measure luminescence. The enzyme activity inhibition degree according to the treatment concentrations of the respective compounds was calculated based on the fluorescence of the enzyme activity of the solvent control group that was not treated with the compound, where the concentration of each compound that inhibited enzyme activity inhibition by 50% was determined as an IC50 (nM) value.
# human FLT3-ITD enzyme = biological target: T2, human FLT3-ITD enzyme (Homo sapiens, UniProt P36888); assay: FLT3 enzyme inhibitory ability (ADP-Glo kinase assay); type: biochemical; conditions: human FLT3-ITD enzyme 10 ng, ATP 10 μM, 25° C. 1 hour
# T2 sequence (P36888 1-993): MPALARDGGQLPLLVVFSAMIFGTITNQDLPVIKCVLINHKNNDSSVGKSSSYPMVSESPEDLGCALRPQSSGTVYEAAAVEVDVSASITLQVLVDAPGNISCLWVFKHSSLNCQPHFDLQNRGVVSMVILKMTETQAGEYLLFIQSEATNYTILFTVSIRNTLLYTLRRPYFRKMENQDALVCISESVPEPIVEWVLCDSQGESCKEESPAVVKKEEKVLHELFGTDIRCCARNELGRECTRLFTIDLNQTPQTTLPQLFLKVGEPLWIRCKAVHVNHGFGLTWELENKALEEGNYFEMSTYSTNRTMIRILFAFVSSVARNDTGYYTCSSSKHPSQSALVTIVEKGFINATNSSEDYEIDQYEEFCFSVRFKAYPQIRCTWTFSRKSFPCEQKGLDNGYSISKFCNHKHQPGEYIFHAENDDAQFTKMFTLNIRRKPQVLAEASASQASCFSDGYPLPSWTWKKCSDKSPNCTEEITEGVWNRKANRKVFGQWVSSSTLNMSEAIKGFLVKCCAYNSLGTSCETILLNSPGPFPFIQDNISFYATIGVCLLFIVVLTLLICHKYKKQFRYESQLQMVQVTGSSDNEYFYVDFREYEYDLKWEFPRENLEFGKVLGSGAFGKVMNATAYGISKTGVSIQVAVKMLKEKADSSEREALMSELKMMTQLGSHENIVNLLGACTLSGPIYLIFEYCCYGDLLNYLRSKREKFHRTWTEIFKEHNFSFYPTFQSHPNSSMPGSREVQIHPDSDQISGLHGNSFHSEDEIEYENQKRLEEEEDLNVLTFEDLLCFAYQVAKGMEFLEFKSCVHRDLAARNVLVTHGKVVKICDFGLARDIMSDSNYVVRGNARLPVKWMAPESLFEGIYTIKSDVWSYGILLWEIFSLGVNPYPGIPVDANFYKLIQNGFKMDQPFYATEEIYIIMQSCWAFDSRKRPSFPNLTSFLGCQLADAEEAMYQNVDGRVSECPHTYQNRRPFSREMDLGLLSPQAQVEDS
# Experimental: The inhibitory activities of the example compounds according to the present invention to the FLT3-ITD enzyme were evaluated. Specifically, the compound of the present invention was reacted with a purified human FLT3-ITD enzyme (Signalchem). A composition of 40 mM Tris-HCl pH 7.4, 20 mM MgCl2, 0.5 mg/mL BSA and 50 μM DTT was used as a reaction buffer, and reactions of all test matters were performed on the reaction buffer. Upon the test, human FLT3-ITD enzyme (10 ng), purified ATP (10 μM) and a specific substrate solution were reacted at 25° C. for 1 hour, and then the enzyme activity was identified using an in vitro ADP-Glo™ kinase assay (Promega). The enzyme activity reaction solution, the ADP-Glo reaction solution and the enzyme ability detection solution were reacted in a ratio of 2:2:1, and the activity inhibition degree of the enzyme was measured as luminescence. Using the solvent-treated group that was not treated with the compound as a control group, the enzyme activity inhibition degree according to the treatment concentration of each compound was calculated based on the enzyme activity fluorescence degree, and the concentration of each compound that inhibited 50%, IC50 (nM), was determined using Prism Software (version 5.01, GraphPad).
GI50 (MCF-7 cells),IC50 (human GST-HPK1 (1-346)),IC50 (human FLT3-ITD enzyme),SMILES
> 500 nM,> 500 nM,> 500 nM,"COc1cc(Nc2nc(N3OCC[C@H]3c3ccccc3)c3sccc3n2)cc(C(=O)N2CCN(CCO)CC2)c1 [Example 66, (S)-(4-(2-hydroxyethyl)piperazin-1-yl)(3-methoxy-5-((4-(3-phenylisoxazolidin-2-yl)thieno[3,2-d]pyrimidin-2-yl)amino)phenyl)methanone]"
> 500 nM,> 500 nM,> 500 nM,"COc1cc(Nc2nc(N3OCC[C@@H]3c3ccccc3)c3sccc3n2)cc(C(=O)N2CCN(CCO)CC2)c1 [Example 67, (R)-(4-(2-hydroxyethyl)piperazin-1-yl)(3-methoxy-5-((4-(3-phenylisoxazolidin-2-yl)thieno[3,2-d]pyrimidin-2-yl)amino)phenyl)methanone]"
> 500 nM,> 500 nM,250 to 500 nM,"CN1CCN(c2ccc(Nc3nc(N4N=CCC4c4ccccc4)c4cc[nH]c4n3)cc2)CC1 (stereo not drawn) [Example 68, N-(4-(4-methylpiperazin-1-yl)phenyl)-4-(5-phenyl-4,5-dihydro-1H-pyrazol-1-yl)-7H-pyrrolo[2,3-d]pyrimidin-2-amine]"
> 500 nM,≥ 250 nM,250 to 500 nM,"OCCN1CCN(c2ccc(Nc3nc(N4OCC[C@H]4c4ccccc4)c4cc[nH]c4n3)cc2)CC1 [Example 81, (S)-2-(4-(4-((4-(3-phenylisoxazolidin-2-yl)-7H-pyrrolo[2,3-d]pyrimidin-2-yl)amino)phenyl)piperazin-1-yl)ethan-1-ol]"
> 500 nM,≥ 250 nM,≥ 250 nM,"COc1cc(Nc2nc(N3OCC[C@H]3c3ccccc3)c3cc[nH]c3n2)ccc1N1CCN(CCO)CC1 [Example 82, (S)-2-(4-(2-methoxy-4-((4-(3-phenylisoxazolidin-2-yl)-7H-pyrrolo[2,3-d]pyrimidin-2-yl)amino)phenyl)piperazin-1-yl)ethan-1-ol]"
> 500 nM,≥ 250 nM,> 500 nM,"CCN1CCN(C2CCN(c3ccc(Nc4nc(N5OCC[C@H]5c5ccccc5)c5cc[nH]c5n4)cc3)CC2)CC1 [Example 85, (S)-N-(4-(4-(4-ethylpiperazin-1-yl)piperidin-1-yl)phenyl)-4-(3-phenylisoxazolidin-2-yl)-7H-pyrrolo[2,3-d]pyrimidin-2-amine]"
> 500 nM,≥ 250 nM,250 to 500 nM,"COc1cc(Nc2nc(N3OCC[C@H]3c3ccccc3)c3cc[nH]c3n2)ccc1N1CCC(N2CCN(CCO)CC2)CC1 [Example 90, (S)-2-(4-(1-(2-methoxy-4-((4-(3-phenylisoxazolidin-2-yl)-7H-pyrrolo[2,3-d]pyrimidin-2-yl)amino)phenyl)piperidin-4-yl)piperazin-1-yl)ethan-1-ol]"
> 500 nM,≥ 250 nM,> 500 nM,"CN1C[C@@H]2C[C@H]1CN2c1cc(Nc2nc(N3OCC[C@H]3c3ccccc3)c3cc[nH]c3n2)cc(S(C)(=O)=O)c1 [Example 91, N-(3-((1S,4S)-5-methyl-2,5-diazabicyclo[2.2.1]heptan-2-yl)-5-(methylsulfonyl)phenyl)-4-((S)-3-phenylisoxazolidin-2-yl)-7H-pyrrolo[2,3-d]pyrimidin-2-amine]"
> 500 nM,≥ 250 nM,> 500 nM,"CN1C[C@H]2C[C@@H]1CN2c1cc(Nc2nc(N3OCC[C@H]3c3ccccc3)c3cc[nH]c3n2)cc(S(C)(=O)=O)c1 [Example 92, N-(3-((1R,4R)-5-methyl-2,5-diazabicyclo[2.2.1]heptan-2-yl)-5-(methylsulfonyl)phenyl)-4-((S)-3-phenylisoxazolidin-2-yl)-7H-pyrrolo[2,3-d]pyrimidin-2-amine]"
> 500 nM,> 500 nM,> 500 nM,"OCCN1CC[C@@H](Oc2cc(Nc3nc(N4OCC[C@H]4c4ccccc4)c4cc[nH]c4n3)cc(C3CC3)c2)C1 [Example 93, 2-((R)-3-(3-cyclopropyl-5-((4-((S)-3-phenylisoxazolidin-2-yl)-7H-pyrrolo[2,3-d]pyrimidin-2-yl)amino)phenoxy)pyrrolidin-1-yl)ethan-1-ol]"
> 500 nM,≥ 250 nM,> 500 nM,"CN1CCC(NC(=O)c2ccc(Nc3nc(N4OCC[C@H]4c4ccccc4)c4cc[nH]c4n3)cc2)CC1 [Example 95, (S)-N-(1-methylpiperidin-4-yl)-4-((4-(3-phenylisoxazolidin-2-yl)-7H-pyrrolo[2,3-d]pyrimidin-2-yl)amino)benzamide]"
> 500 nM,> 500 nM,> 500 nM,"CN(C)[C@H]1CCN(c2cccc(Nc3nc(N4OCC[C@H]4c4ccccc4)c4cc[nH]c4n3)c2)C1 [Example 99, N-(3-((S)-3-(dimethylamino)pyrrolidin-1-yl)phenyl)-4-((S)-3-phenylisoxazolidin-2-yl)-7H-pyrrolo[2,3-d]pyrimidin-2-amine]"
> 500 nM,> 500 nM,> 500 nM,"CN(C)[C@@H]1CCN(c2cccc(Nc3nc(N4OCC[C@H]4c4ccccc4)c4cc[nH]c4n3)c2)C1 [Example 100, N-(3-((R)-3-(dimethylamino)pyrrolidin-1-yl)phenyl)-4-((S)-3-phenylisoxazolidin-2-yl)-7H-pyrrolo[2,3-d]pyrimidin-2-amine]"
> 500 nM,> 500 nM,> 500 nM,"CC1(C)OC(=O)c2ccc(Nc3nc(N4OCC[C@H]4c4ccccc4)c4cc[nH]c4n3)cc21 [Example 115, (S)-3,3-dimethyl-5-((4-(3-phenylisoxazolidin-2-yl)-7H-pyrrolo[2,3-d]pyrimidin-2-yl)amino)isobenzofuran-1(3H)-one]"
